Key:
[1] = system: Wistar rats; test: Anticonflict test (water drinking behavior under electroshock); assay type: in vivo; details: oral; for Relieving rate of anxiety: one hour before experiment, male Wistar rats; for anxiolytic effect (in words): dose of 1.0 mg/kg
Protocol: Wistar rats (males weighing 140 to 160 g) were used for experiment in groups of 11 to 14.
Compound 1'a-1, 1'a-5, 1'b-1, 1'''-8, 1'''-9, the above comparison compound, diazepam or buspirone was suspended in a 0.5 % sodium carboxymethyl cellulose solution, and the suspension was orally given to the animal in a volume of 5 ml/kg one hour before the start of experiment.
With reference to a method described in "Process in Anxiolytics and Antidepressants," edited by Showa Ueki and Tatsuo Furukawa, Ishiyaku Shuppansha, 56∼ 59 (1981), the agents were tested using experimental boxes having grid floor and a metal drinking tube in the floor. No water was supplied to the rats for 48 hours before the experiment. Upon lapse of first 24 hours, each group of rats were placed into the experimental box, permitted access to water for 30 seconds and caused to recognize the metal drinking tube. Upon lapse of further 24 hours with access to water prevented, the rats were placed into the box again and permitted access to water on condition that an electric current was passed between the metal drinking tube and the grid to give an electroshock for every 20 times of water drinking behavior to measure the frequency of water drinking behavior for 3 minutes. Anxiolytic effect was evaluated as relieving rate of anxiety as calculated by the following equation. Relieving rate of anxiety = (C-B)/(A-B) × 100 [formula] • A: Frequency of water drinking behavior of a control group without an electroshock and no anxiety (frequency under no punishment) • B: Frequency of water drinking behavior of a group with an electroshock and anxiety (under punishment) and having been administerd a solvent containing no test compound (frequency under solvent-control group) • C: Frequency of water drinking behavior of a group having been administered a test compound and relieved anxiety (frequency under test compound-administered group) Table 7

[2] = system: ddY mice; details: mouse, in vivo, po, 300 mg/kg
Protocol: (§1) Compound 1'a-1, the comparison compound, diazepam or buspirone was suspended in a 0.5 % sodium carboxymethyl cellulose solution, and the suspension was orally administered to 3- to 4-week-old male ddY mice (in groups of 5) in a volume of 10 ml/kg one hour before the start of experiment.
With reference to a method described in Japan. J. Pharmacol., 49. 337∼ 349(1989), the foreleg of the mouse was hung on a horizontal wire, having a diameter of 1.2 mm and fixed at a level of 30 cm, three times consecutively. […] Thus, ED50 was determined for evaluation.

[3] = system: ddY mice; details: mouse, in vivo, po, 300 mg/kg; remark: listed apart in the source
Protocol: as §1
The test was conducted with reference to a method described in "Evaluation of Medicinal Efficacies (1), Pharmacological Test Method (I ), Basic Lectures on Development of Pharmaceuticals," 50∼ 54(1971). More specifically, the group of mice were given the test drug and thereafter measured the amount of spontaneous locomotor activity for 10 minutes per mouse using Animex MK-110 (Muromachi Kikai Co., Ltd.).

[4] = system: ddY mice; details: mouse, in vivo, po, 300 mg/kg; remark: listed apart in the source
Protocol: (§2) Compound 1'a-1, the comparison compound, diazepam or buspirone was suspended in a 0.5 % sodium carboxymethyl cellulose solution, and the suspension was orally administered to 3- to 4-week-old male ddY mice (in groups of 6) in a volume of 10 ml/kg one hour before the start of experiment.
The test was conducted with reference to a method described in Japan. J. Pharmacol., 49, 337∼ 349(1989). More specifically, the group of mice were intraperitoneally given 25 % ethanol at a dose of 20 ml/kg and checked for the time interval between loss and recovery of the righting reflex.

[5] = system: ddY mice; test: Anticonvulsant effect (pentylenetetrazol-induced convulsion method); assay type: in vivo; details: for anticonvulsant effect: dose of 300 mg/kg, oral, male ddY mice; for ED50: Mus musculus, po, 1 h, read-out: ED50 (anticonvulsant effect)
Protocol: as §2
The test was conducted with reference to a method described in "Evaluation of Medicinal Efficacies (1), Pharmacological Test Method (I), Basic Lectures on Development of Pharmaceuticals," 167∼ 172(1971).

[6] = system: ddY mice; test: Acute toxicity test; assay type: in vivo; details: oral, 6 male ddY mice, observed for 3 days
Text: Five-week-old male ddY mice were used in groups of 6. […]

| Compound | Relieving rate of anxiety ([1]; dose 0.01 mg/kg) [%] | Relieving rate of anxiety ([1]; dose 0.1 mg/kg) [%] | Relieving rate of anxiety ([1]; dose 1.0 mg/kg) [%] | muscle relaxant effect [2] | sedative effect [3] | ethanol enhancing effect [4] | anticonvulsant effect [5] | Number of death ([6]; dose 2000 mg/kg) | Number of death ([6]; dose 3000 mg/kg) | anxiolytic effect (in words) [1] | ED50 [5] [mg/kg] | decreased anxiety ([1]; doses of 0.01 to 0.1 mg/kg) |
| --- | --- | --- | --- | --- | --- | --- | --- | --- | --- | --- | --- | --- |
| COc1ccc(C(=O)N2C(=O)CC[C@H]3[C@H](O)CC[C@H]32)cc1 (racemic) [Compound 1'a-1, (1RS, 6RS, 7RS)-7-hydroxy-2-(4-methoxybenzoyl)-2-azabicyclo-[4.3.0]nonan-3-one] | 93 | 86 | 76 | no muscle relaxant effect | no sedative effect | no ethanol enhancing effect | no anticonvulsant effect | 0 | 2 | – | – | – |
| CN1C(=O)CN=C(c2ccccc2)c2cc(Cl)ccc21 [Diazepam] | – | – | -3 | – | – | – | – | – | – | almost ineffective | 0.35 | – |
| O=C1CC2CCCCC2N1 (stereo not shown) [Comparison Compound, 2-azabicyclo[3.4.0]nonane-3-one] | 43 | 44 | 46 | no muscle relaxant effect | no sedative effect | no ethanol enhancing effect | no anticonvulsant effect | 1 | 5 | – | – | up to 50% |
| O=C1CC2(CCCC2)CC(=O)N1CCCCN1CCN(c2ncccn2)CC1 [Buspirone] | – | – | 2 | – | – | – | – | – | – | almost ineffective | ≥ 300 | – |
